SMILES | melting point [°C]
Fc1ccc(F)cc1 | -13
CC(=O)OOC(C)=O | 30
N#CCS(=O)(=O)c1cccs1 | 84
CC(=O)[C@H]1CC[C@H]2[C@@H]3CC=C4C[C@@H](OC(=O)CCC(=O)O)CC[C@]4(C)[C@H]3CC[C@]12C | 180
Nc1cc(O)c(Cl)cc1Cl | 133 to 137
O=C1OC(/C=C/c2ccccc2)Cc2ccccc21 (stereo not drawn) | 84
O=C1NC(=O)C(=NNc2ccccc2[N+](=O)[O-])C(=O)N1 | 290
C[N+](C)(C)CC(O)CC(=O)[O-] (stereo not drawn) | 208 to 212
CN1C(=O)CCS(=O)(=O)C1c1ccc(Cl)cc1 (stereo not drawn) | 116
CCC(Br)(CC)C(=O)NC(=O)NC(C)=O | 109
O=[N+]([O-])c1ccc(N/N=C/c2ccccc2)c([N+](=O)[O-])c1 | 240
C/C(OCCc1ccccc1)=C(/C#N)c1ccccc1 | 118
Cc1cc([N+](=O)[O-])c(N)c([N+](=O)[O-])c1 | 172
CSc1ccc(-n2c(-c3ccccc3)cc(C(=O)O)c2C)cc1 | 202 to 203
O=C(O)c1ccccc1OP(=O)(O)O | 168
Fc1ccc(C(Br)(c2ccc(F)cc2)c2ccc(F)cc2)cc1 | 109
O=CC(=O)O | 98
CC1NC(=O)NC1=O (stereo not drawn) | 151
C#CCOC(=O)C(C)Oc1ccc(Oc2ncc(Cl)cc2F)cc1 (stereo not drawn) | 59.5
Cc1c(NC(=O)C(F)(F)C(F)(F)C(F)(F)C(F)(F)C(F)(F)C(F)(F)C(F)(F)C(F)(F)F)c(=O)n(-c2ccccc2)n1C | 177
O=C(O)c1c[nH]c(=O)c(Cl)c1 | 284 to 286
CCCCc1ccc(/N=N/c2ccc(OC(=O)CC)cc2)cc1 | 84 to 87
Cc1ccc(C(=O)c2nn3c(nc(=O)c4ccccc43)s2)cc1 | 211

SMILES | melting point [°C]
CCCCCCCC(O)CC (stereo not drawn) | -5
NC(=O)c1c(F)ccc(Cl)c1F | 135
ClC1CCC(Cl)CC1 (stereo not drawn) | 18
CCNC(=O)CC#N | 73 to 74
COc1ccc(C(=O)C=Cc2ccc(-c3ccccc3OC)o2)cc1OC | 144 to 145
O=C1NN(c2ccccc2)C(=O)C1c1ccccc1 (stereo not drawn) | 233
O=C(O)CCCSSCCCC(=O)O | 105 to 110
Cc1cccc2c(=O)c(=O)c12 | 121
O=C(O)c1cc2cnccc2nc1C(F)(F)F | 233 to 235
CCOC(=O)c1csnn1 | 86 to 88
Cc1ccc(C)c(C)n1 | 37
Cc1ccc(CBr)cc1 | 35
O=[N+]([O-])C=Cc1cc(Cl)ccc1O | 148 to 154
CC(C)C1CCCCC1 | -89.4
Oc1ccc(C2CCCCC2)cc1Cl | 40.5
c1ccc2c3c(ccc2c1)-c1cccc2cccc-3c12 | 166
CC(C)C/C(Cc1ccccc1)=N\NC(N)=O | 89
CSc1ccc([N+](=O)[O-])cc1 | 65 to 68
CCn1c(C)nc([N+](=O)[O-])c1I | 210 to 212
CCOC(=O)[C@@H]1CC=CC[C@@H]1N (relative stereo) | 99 to 103
Cc1cc(C(=O)CCl)c(C)n1-c1ccc(Cl)cc1 | 88 to 89
COc1cc(Br)c(C=O)cc1OC | 150
FC1(F)C(Cl)=C(Cl)C(F)(F)C(F)(F)C1(F)F | -70

SMILES | melting point [°C]
Cc1nn(-c2ccccc2)nc1C(=O)NO | 160
CNC(c1ccccc1)C(NC)c1ccccc1 (stereo not drawn) | 48 to 51
Cc1cccc2c(O)noc12 | 155 to 157
NNc1ccc([N+](=O)[O-])cn1 | 206
ON=Cc1c[nH]cn1 | 182
O=Cc1cc(Br)cs1 | 46 to 47
O=C(O)/C=C/c1cccc(F)c1 | 167
CCOc1cccc(-c2ccccc2)c1 | 35
CCOC(=O)C1C(c2ccccc2)C(C(=O)OCC)C(O)(C(F)(F)F)NC1(O)C(F)(F)F (stereo not drawn) | 234
OC(O)C(F)(F)C(F)(F)C(F)(F)C(F)(F)C(F)(F)C(F)(F)C(F)(F)C(F)(F)F | 91 to 94
CC(=O)Oc1cccc(C(N)=O)c1 | 140
COc1cc2ccc(=O)oc2c(O)c1O | 231
ClC(Cl)=CBr | -88.5
CC(=O)Oc1ccc(OC(C)=O)c2ccccc12 | 124
O=C(C1=NOC2C(=O)N(c3ccc(O)cc3)C(=O)C12)c1ccccc1 (stereo not drawn) | 99
O=C(OC(C(=O)c1ccc2c3c(cccc13)CC2)c1ccccc1)c1ccccc1 (stereo not drawn) | 156
CCCCc1ccc(NC(=O)c2ccc(OC)cc2)cc1 | 146 to 148
Cc1cc(O)c(C(=O)CC(=O)c2ccccc2)cc1Cl | 120 to 123
C=C1C(=O)OC2CC3(C)CCCC(C)C3=CC12 (stereo not drawn) | 76
N=C1NC(=O)CS1 | 249
Cc1cc(C)c(Br)c(C)c1N | 36
CC(CC(=O)O)CC(C)(C)C (stereo not drawn) | -70
N[C@@H](CCC(=O)OCc1ccccc1)C(=O)O | 169

SMILES | melting point [°C]
COc1ccc(C=CC(=O)Oc2ccc(C=CC(=O)c3ccccc3)cc2)cc1 | 158
CC1CCC(C(C)C)C(OC(=O)/C(=C/c2ccccc2)Cc2ccccc2)C1 (stereo not drawn) | 64 to 65
Oc1ccc(F)c2cccnc12 | 110
NC(=O)Oc1ccc(Cc2ccccc2)cc1 | 148
Cc1c(O)ccc2c1OC(C)(C)CC2=O | 181 to 182
CCCCCCc1ccc(-c2ccccc2)cc1 | 30
COCCOC | -58
O=C(O)c1cc(F)cc(Br)c1 | 143
O=c1c2c(oc3c1CCCC3)CCCC2 | 130
O=C1CCC2(c3ccccc3)OCC(c3ccccc3)N12 (stereo not drawn) | 78
BrC1Cc2ccccc2C1Br (stereo not drawn) | 32
COC(=O)c1ccc(Br)cn1 | 101
CCC1C2=C(OC(=O)C1(C)C)c1ccc(OC)cc1CC2 (stereo not drawn) | 142 to 143
COP(=O)(CN1C(=O)c2ccccc2C1=O)OC | 118
Cc1ccnc(Nc2nc3ccccc3[nH]2)c1 | 279 to 281
O=c1occc2ccccc12 | 47
O=[N+]([O-])c1cc(C=NO)ccc1C=NO | 175 to 176
O=C1OCCO1 | 39.5
O=Cc1ccc(N2CCOCC2)c([N+](=O)[O-])c1 | 53 to 55
ON(Cc1c(F)cccc1Cl)Cc1c(F)cccc1Cl | 169 to 171
CCOc1cc(OCC)c(C(=O)CCC(=O)O)cc1OCC | 150
CCCCCCCCCCCCCCCC(=O)OCC=C(C)C=CC=C(C)C=CC1=C(C)CCCC1(C)C | 28.5
Oc1c(-c2ccccn2)n(N2CCCCC2)c2ccccc12 | 185

SMILES | melting point [°C]
c1nnc(SCCSc2nnc[nH]2)[nH]1 | 197 to 200
COC(=O)c1ccc2ccccc2c1 | 77
CN1C(=O)CSC1=S | 72 to 73
CSCCC(N)CO (stereo not drawn) | 31 to 36
Cc1ccc(-c2ccc(C=C3C(=O)NC(=O)NC3=O)o2)cc1 | 265
Oc1cccc(I)c1 | 118
O=C(O)C=C(F)C(F)(F)C(F)(F)C(F)(F)C(F)(F)C(F)(F)C(F)(F)C(F)(F)F | 105
O=C(OCCc1ccc(CCOC(=O)c2ccc([N+](=O)[O-])cc2)cc1)c1ccc([N+](=O)[O-])cc1 | 173
C=Cc1ccc(C(N)=O)cc1 | 170
Nc1nnc(-c2ccccc2)s1 | > 270
N#CC(C#N)=NNc1cc(Cl)cc(Cl)c1 | 192 to 194
CCCCCCCCCC=CC(=O)O | 17.1
CC(=O)NC(=O)c1ccccc1O | 148
O=C(O)c1cc(F)c(F)c(F)c1 | 98
C[C@]12CCC(=O)C[C@@H]1CCC1=C2CC[C@@H]2C(=O)CC[C@H]12 | 137 to 138
CCCCOCC | -124
O=S(=O)(O)CCN(CCO)CCO | 152 to 154
c1c2c(cc3c1CCCC3)CCCC2 | 78
c1cc2ccc1CCc1ccc(cc1)CC2 | 285 to 288
Cc1cncc(N2CCC(CO)CC2)n1 | 103 to 107
O=C1c2ccccc2C(=C(c2ccccc2)c2ccccc2)c2ccccc21 | 203 to 207
CC(=O)C(C(C)=O)=C1SCCCS1 | 91
c1ccc(-c2nc3ccccc3o2)cc1 | 103

SMILES | melting point [°C]
N#CC(C#N)=C(CC=O)c1ccc(Cl)cc1 | 100
CNC(=C[N+](=O)[O-])NCCSCc1ccc(CN(C)C)o1 | 69
Nc1snnc1-c1ccc(C(F)(F)F)cc1 | 125 to 128
CCCCCCCc1ccc(C(=O)O)cc1 | 102
COc1ccc2c(c1)CC1(CCC(O)(c3ccc(C(C)(C)C)cc3)CC1)C2O (stereo not drawn) | 102 to 106
CN1CCCN(c2ccc(C#N)cc2)CC1 | 93 to 94
Cc1nc(N)nc(NN)n1 | 250
COC(=O)C=Cc1ccc(Cl)cc1 | 76
C#CCCCCC | -81
O=C(O)c1cc(=O)cc(C(=O)O)o1 | 262
O=C1C(Cl)=C(Cl)C(=O)C(Cl)=C1Cl | 290
NC(=O)c1ccc(C(N)=O)cc1 | 332
CCCCCCCCCCC(O)CC (stereo not drawn) | 32
BrCCc1ccc(CCBr)cc1 | 73
FC1(F)C(F)(F)C(F)(F)C2(F)C(F)(C1(F)F)C(F)(F)C(F)(F)C1(F)C(F)(F)C(F)(F)C(F)(F)C(F)(F)C12F (stereo not drawn) | -20
COC(=O)c1c(OC)c(OC)c(OC)c(C(=O)OC)c1C(=O)OC | 84 to 85
CCOC(=O)c1cnn(C)c1S(=O)(=O)NC(=O)Nc1nc(OC)cc(OC)n1 | 182
CCN(C)CC | -196
